The test system of assay [1] is P. gingivalis and ligature-induced experimental periodontitis. Put plainly: Radiographic analysis (Bjorn technique) in rabbit experimental periodontitis. The assay is classed as in vivo, New Zealand White rabbits.
Assay [2] shares this test system. Nature of the assay: Histological analysis (HE) in rabbit experimental periodontitis. The format is in vivo, New Zealand White rabbits. The conditions noted are these: topical application; rabbits with P. gingivalis and ligature placement.
The test system is the same in assay [3]. Put plainly: Morphometric analysis of mandibles in rabbit experimental periodontitis. The assay is classed as in vivo, New Zealand White rabbits. The conditions noted are these: topical resolvin E1 before P. gingivalis application, every other day for 6 weeks; versus vehicle (ethanol).
The test system of another assay is CF-PGE2 levels. The conditions noted are these: in humans; cited from earlier work.
The test system of assay [4] is PGE2 generation from gingival homogenates. The conditions noted are these: ElAttar et al. 1984; cited from earlier work.
The subject of assay [5] is COX-derived eicosanoids in crevicular fluid. Conditions: cited from earlier work.
[6] abbreviates: p<0.05 for vehicle group compared to resolvin E1 or ligature alone.

As to `CC[C@@H](O)/C=C/C=C\C[C@@H](O)/C=C/C=C/C=C\[C@@H](O)CCCC(=O)O` [resolvin E1], in assay [1] (setting [6]), the “percentage of bone loss calculated by the Bjorn technique (FIG. 5)” value was “prevents the destructive effects” and the “percentage of tooth in bone measured on radiographs (FIG. 4)” value was “maintenance of bone levels”. For the same compound, the “bone loss, radiographic appearance of alveolar bone (FIG. 3)” value in assay [1] (topical application, bone at the same level as ligature alone) is “prevented the bone loss”. In addition, in assay [2], the “bone loss, histology (FIG. 6)” value is given as “prevented” and the “inflammatory changes, histology (FIG. 6)” value is given as “prevented”. In assay [3], the “bone destruction (defleshed bone specimens, FIG. 1)” value is reported as “prevented” and the “gingival inflammation (gingival tissue of mandibles, FIG. 1)” value is recorded as “prevented”.
Take `CC(C(=O)O)c1ccc(-c2ccccc2)c(F)c1` (centres unmarked) [flurbiprofen]: the CF-PGE2 levels result in the assay on CF-PGE2 levels was “dramatically decreased”. For the same compound, the “PGE2 generation from gingival homogenates” value in assay [4] is “significantly inhibited”. Besides, the “CF-PGE2 levels, gingival inflammation, tooth attachment loss and bone loss” value in assay [5] (Pauletto et al. 1997, in some cases bone gain) is listed as “reduced”. In assay [5] (animals taking flurbiprofen), the “COX-derived eicosanoids in crevicular fluid (CF)” value is “decreased”.
